A word on the IC50: it is the concentration that gives 50% inhibition. Broadly, the CC50 is the concentration at which the toxic effect on the cells reaches its halfway point.

Series [1] has as its target T1, ATPase DDX3 (Homo sapiens, UniProt O00571).
T1 construct: made in house; host or cells: E. coli
Kind of series: Selectivity of 20a: ATPase DDX3. The format is biochemical. The following applies: >200 = less than 20% of inhibition at 200 μM, the highest concentration tested.

Series [2] deals with human liver microsome (HLM). Kind of series: Microsomal Stability Assay. The following applies: human liver microsomes, 37 °C, 60 min, compound 50 μM; percentage of not metabolized compound. (Liver microsomes are a subcellular fraction often used to study metabolism.)
Series [3] can be described thus: Cytotoxicity, MTT method in HuH7.5 cells. The format is cell-based. The following applies: human, non-infected, read-out: HCV CC50. The procedure: After 4 h of incubation at 37° C. in a humidified atmosphere with 5% CO2, the amount of formazan produced was quantified spectrophotometrically at 550/620 nm (C. Pannecouque et al, Nature protocol 2008; 3 (3): 427-434). […] These assays were done in duplicate.
For orientation: Tetrazolium assays rely on reduction of a dye to a coloured formazan, in cell work by metabolically active cells.

Series [4] concerns the target NS3 (HCV) (Hepacivirus hominis (Hepatitis C virus), UniProt P26663). The series can be described thus: Selectivity of 20a: NS3 (HCV). Format: biochemical.
Series [5] is described as follows: Parallel Artificial Membrane Permeability Assay (PAMPA). The format is in vitro ADME. A general note: In PAMPA a lipid-coated filter parts donor from acceptor wells.
A short description of series [6]: Cytotoxicity in the JEV cell culture system. The following applies: hamster.

T1 sequence (O00571 whole entry): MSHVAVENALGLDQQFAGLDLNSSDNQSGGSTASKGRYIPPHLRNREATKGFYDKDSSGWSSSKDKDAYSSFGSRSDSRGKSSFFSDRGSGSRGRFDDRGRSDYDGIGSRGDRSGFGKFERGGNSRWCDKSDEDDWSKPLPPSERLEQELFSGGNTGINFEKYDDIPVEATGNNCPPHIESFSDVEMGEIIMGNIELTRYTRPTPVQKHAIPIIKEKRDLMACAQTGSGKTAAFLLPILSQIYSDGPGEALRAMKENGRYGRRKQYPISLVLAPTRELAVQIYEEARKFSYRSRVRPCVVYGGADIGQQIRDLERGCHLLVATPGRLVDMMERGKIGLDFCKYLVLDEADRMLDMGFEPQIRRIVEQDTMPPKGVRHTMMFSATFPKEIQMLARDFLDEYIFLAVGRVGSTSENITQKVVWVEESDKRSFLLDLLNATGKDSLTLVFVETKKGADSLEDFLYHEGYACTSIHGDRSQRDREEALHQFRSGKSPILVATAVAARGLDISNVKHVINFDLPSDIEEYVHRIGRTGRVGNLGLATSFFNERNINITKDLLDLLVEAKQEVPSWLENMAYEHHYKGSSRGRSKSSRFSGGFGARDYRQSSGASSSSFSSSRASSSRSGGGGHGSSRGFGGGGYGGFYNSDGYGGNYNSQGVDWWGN
NS3 (HCV), sequence (P26663 1027-1657): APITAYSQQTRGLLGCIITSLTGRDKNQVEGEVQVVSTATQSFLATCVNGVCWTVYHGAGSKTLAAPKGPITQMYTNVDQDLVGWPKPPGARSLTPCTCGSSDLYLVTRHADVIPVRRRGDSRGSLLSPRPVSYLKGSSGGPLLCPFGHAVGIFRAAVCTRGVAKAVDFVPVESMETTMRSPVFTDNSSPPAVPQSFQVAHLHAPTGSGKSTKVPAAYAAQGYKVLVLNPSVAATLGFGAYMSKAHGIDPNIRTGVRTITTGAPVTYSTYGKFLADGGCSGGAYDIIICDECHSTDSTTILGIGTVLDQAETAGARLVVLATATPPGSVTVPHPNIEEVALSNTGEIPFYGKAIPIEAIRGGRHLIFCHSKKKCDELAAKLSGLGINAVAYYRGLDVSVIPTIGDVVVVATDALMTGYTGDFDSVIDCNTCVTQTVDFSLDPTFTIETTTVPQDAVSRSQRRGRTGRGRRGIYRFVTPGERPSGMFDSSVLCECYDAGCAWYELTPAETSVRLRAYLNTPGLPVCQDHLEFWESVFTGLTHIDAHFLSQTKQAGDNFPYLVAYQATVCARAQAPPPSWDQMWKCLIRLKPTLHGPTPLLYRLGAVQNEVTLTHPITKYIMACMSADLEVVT

For the molecule `CCCCc1cn(-c2ccc(NC(=O)Nc3ccccc3C)cc2)nn1` [Compound 20a, 1-(4-(4-butyl-1H-1,2,3-triazol-1-yl)phenyl)-3-o-tolylurea], the IC50 in series [1] is > 200 µM; in series [4] it was 16.8 µM. For the same molecule, the “Metabolic stability (Sability %)” value in series [2] was 99%. In addition, the CC50 is 10.1 µM in series [3] and > 50 µM in series [6]. The Papp at 5 h, 0.5 mM in series [5] (PAMPA, phosphatidylcholine in dodecane, pH 7.4, 5 h, room temperature, read-out: PAMPA Papp *10^−6 (cm/s) GI) was 2.86 ×10⁻⁶ cm/s. In addition, in series [5] (value in brackets in the PAMPA cell), the “PAMPA membrane retention (RM %)” value worked out at 19.1%.

The record behind these values is patent US10941121B2 (AZIENDA OSPEDALIERA UNIVERSITARIA SENESE, priority 2015, dated 2021).
